According to paper PMC6470589, “Contribution of Molecular Structure to Self-Assembling and Biological Properties of Bifunctional Lipid-Like 4-(N-Alkylpyridinium)-1,4-Dihydropyridines” (Pharmaceutics, 2019):
Several values for one entry are separate records, joined by “and”; a condition that tells them apart may be missing. Identical values can stand only once. Entries after “also recorded” stand apart in the source; their conditions may differ.

Experiments:
[1] = MTT cytotoxicity assay on HT-1080 tumor cells, 72 h; format: cell-based, human; settings: human, HT-1080 fibrosarcoma cells, MTT, 72 h; ne = no effect in the tested concentration (up to 100 μg/mL); read-out: Cytotoxicity IC50, HT-1080
Procedure: (§1) Tumor cell lines HT-1080 (human connective tissue fibrosarcoma) and MH-22A (mouse hepatocarcinoma) were used. All of the cells were obtained from the American Type Culture Collection ((ATCC,) Rockville, MD, USA). HT-1080 and MH-22A cells (4 × 10^4 cell/mL) were seeded in 96-well plates in Dulbecco’s modified Eagle’s medium (DMEM) containing 10% fetal bovine serum and cultivated for 72 h at 37 °C, 5% CO2 by exposure to different compounds concentrations (100 μg/mL, 25 μg/mL, 6.25 μg/mL, and 1.56 μg/mL). Cell viability was measured using 3-(4,5-dimethylthiazol-2-yl)-2,5-diphenyl-tetrazolium bromide (MTT) assay. In brief, after incubating with compounds, the culture medium was removed and fresh medium with 0.2 mg/mL MTT was added in each well of the plate. After incubation (3 h, 37 °C, 5% CO2), the medium with MTT was removed, and 200 μL of DMSO was added at once to each sample. The samples were tested at 540 nm on a Tecan multiplate reader Infinite1000 (Tecan Austria GmbH, Salzburg, Austria). The IC50 was calculated using the program Graph Pad Prism® 3.0.

[2] = MTT cytotoxicity assay on MH-22A tumor cells, 72 h; format: cell-based, mouse; settings: mouse, MH-22A hepatocarcinoma cells, MTT, 72 h; ne = no effect in the tested concentration (up to 100 μg/mL); read-out: Cytotoxicity IC50, MH-22A
Procedure: as §1

[3] = tested on: NIH 3T3 (Mouse Swiss Albino embryo fibroblast) cells; test: Basal cytotoxicity test (neutral red uptake) with estimation of LD50 from IC50; format: cell-based; settings: category by estimated LD50 (mg/kg)
Procedure: The neutral red uptake (NRU) assay was performed according to the standard protocol of Stokes modified by NICEATM-ECVAM validation study. The NRU cytotoxicity assay procedure was based on the ability of viable cells to incorporate and bind neutral red, which is a supravital dye.
NIH 3T3 (Mouse Swiss Albino embryo fibroblast) cells (9000 cells/well) were placed into 96-well plates for 24 h in DMEM medium containing 5% fetal bovine serum (FBS). Then, they were exposed to the test compound over a range of seven concentrations (1000 μg/mL, 316 μg/mL, 100 μg/mL, 31 μg/mL, 10 μg/mL, 3.0 μg/mL, and 1.0 μg/mL) for 24 h. Untreated cells were used as a control. After 24 h, the medium was removed from all plates. Then, 250 μL of neutral red (NR) solution was added (0.05 mg/mL NR in DMEM 24 h pre-incubated at 37 °C and then filtered before use through a 0.22-µm syringe filter). Plates were incubated for 3 h, and then, cells were washed three times with phosphate buffered saline (PBS). The dye within viable cells was released by extraction with a mixture of acetic acid, ethanol, and water (1:50:49). The absorbance of neutral red was measured using a spectrophotometer multiplate reader Infinite M1000 (Tecan Austria GmbH, Salzburg, Austria) at 540 nm. The optical density (OD) was calculated using the formula: OD (treated cells) × 100/OD (control cells). The IC50 values were calculated using the program Graph Pad Prism® 3.0.
Data from the in vitro tests were used for estimating the starting dose for acute oral systemic toxicity tests in rodent. The in vivo starting dose is an estimated LD50 value that is calculated by inserting the in vitro IC50 value into a regression formula: log LD50 (mM/kg) = 0.439 log IC50 (mM) + 0.621 [29]. The value is recalculated to mg/kg, and compounds are evaluated in accordance with four toxicity categories: category 1: LD50 ≤ 5 mg/kg (highly toxic); category 2: 5 < LD50 ≤ 50 mg/kg (moderately toxic); category 3: 50 < LD50 ≤ 300 mg/kg (slightly toxic); category 4: 300 < LD50 ≤ 2000 mg/kg (practically non-toxic). Using an alternative in vitro method enables comparing the possible toxicity of new compounds and selecting compounds for further study, which will vastly reduce the number of animal experiments.

[4] = Self-assembling properties by dynamic light scattering (DLS); format: physicochemical; settings: for PDI ± SD, 1 Set: freshly prepared samples; for Zeta-Pot ± SD: freshly prepared samples in water, 0.5 mg/mL (1–7), 0.25 mg/mL (8–10), 0.1 mg/mL (11); for PDI ± SD, 2 Set: two weeks after the first set, samples stored at r.t.; for Stability of nanoparticles: two weeks of storage at r.t., DLS
Procedure: Samples of compounds for dynamic light scattering (DLS) studies were prepared by thin-film hydration method in an aqueous solution at a concentration of 0.5 mg/mL for compounds 1–7, 0.25 mg/mL for compounds 8–10, and 0.1 mg/mL for compound 11. A corresponding amount of compounds was weighted in a round-bottom flask and dissolved in chloroform; then, the organic solvent was removed in vacuo, and the residue was dried in high vacuo for 1 h. An appropriate amount of deionised water was added to each flask for the preparation of stock solutions with the above-mentioned concentrations. Samples were prepared by sonication using a bath-type sonicator (Cole Parmer Ultrasonic Cleaner 8891CPX (Vernon Hills, IL, USA)). Samples were sonicated for 60 min at 50 °C.
The DLS measurements of the nanoparticles in an aqueous solution were carried out on a Zetasizer Nano ZSP (Malvern Panalytical Ltd., Malvern, UK) instrument with Malvern Instruments Ltd. Software 7.12, using the following specifications—medium: water; refractive index: 1.33; viscosity: 0.8872 cP; temperature: 25 °C; dielectric constant: 78.5; nanoparticles: liposomes; refractive index of materials: 1.60; detection angle: 173°; wavelength: 633 nm. Data were analysed using the multimodal number distribution software that was included with the instrument. The measurements were performed in triplicate in order to check their reproducibility.

[5] = tested on: Bacillus subtilis subsp. spizizenii; test: Toxicity screen, serial dilution-spot test; format: cell-based; settings: gram positive; 24 h exposure in DI water, 28 °C; 0.0001 = no colonies at 0.001 mM;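 also: last dilution that did not fully inhibit growth with colonies still present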
Procedure: (§2) An estimation of the toxicity of 4-(N-alkylpyridinium)-1,4-DHP derivatives 3, 6, 7, and 9–11 was performed using six prokaryotic (bacteria) and one eukaryotic (yeast) microorganism species according to the procedure elaborated by Suppi et al.. The microorganisms used in the study and their origin were: Bacillus subtilis subsp. spizizenii (ATCC® 6633™*, Microbiologics®, St Cloud, MN, USA), Escherichia coli (ATCC® 8739, Microbiologics®), Klebsiella pneumoniae (Latvian Microorganisms strain collection, LMKK, strain number 535, Riga, Latvia), Micrococcus luteus (LMKK, No. 25), Pseudomonas aeruginosa (NCTC 12924, Biosciences Ltd., Dublin, Ireland), Proteus mirabilis (LMKK, No 590), and Saccharomyces cerevisiae, CEN.PK2 strain [32].
(§3) Bacteria and yeast cultures were cultivated until their exponential growth phase (optical density max 1); then, 100 µL of cell suspension was taken, washed in deionised (DI) water, and added to serially diluted samples of corresponding 4-(N-alkylpyridinium)-1,4-DHPs in DI water. All 1,4-DHPs were tested in five serially diluted concentrations (10 mM, 1 mM, 0.1 mM, 0.01 mM, and 0.001 mM). Test organisms were exposed to 1,4-DHP derivatives in DI water on 96-well microplates (Corning, Corning, NY, USA) at 28 °C for 24 h without shaking in the dark. Then, a 5 µL sample was taken from each well and spotted on yeast extract, bactopeptone, dextrose broth (YPD) (yeast extract 1%, bactopeptone 2%, glucose 2% and agar 2%) plates to test the growth of yeasts and lysogeny broth (LB) (yeast extract 0.5%, bactopeptone 1%, NaCl 0.5% and agar 2%) to test the growth for bacteria. Plates were left in 30 °C for 24 h, and assessed for microbial growth.
(§4) If there were no colonies after incubation with 1,4-DHPs in the last concentration of (0.001 mM), then their boundary concentration was set to 0.0001 mM or 0.1 µM.

[6] = tested on: Escherichia coli; test: Toxicity screen, serial dilution-spot test; format: cell-based; settings: gram negative; 24 h exposure in DI water, 28 °C; 0.0001 = no colonies at 0.001 mM;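 also: last dilution that did not fully inhibit growth with colonies still present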
Procedure: as §2, §3, §4

[7] = tested on: Klebsiella pneumoniae; test: Toxicity screen, serial dilution-spot test; format: cell-based; settings: gram negative; 24 h exposure in DI water, 28 °C; 0.0001 = no colonies at 0.001 mM;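 also: last dilution that did not fully inhibit growth with colonies still present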
Procedure: as §2, §3, §4

[8] = tested on: Micrococcus luteus; test: Toxicity screen, serial dilution-spot test; format: cell-based; settings: gram positive; 24 h exposure in DI water, 28 °C; 0.0001 = no colonies at 0.001 mM;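 also: last dilution that did not fully inhibit growth with colonies still present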
Procedure: as §2, §3, §4

[9] = tested on: Proteus mirabilis; test: Toxicity screen, serial dilution-spot test; format: cell-based; settings: gram negative; 24 h exposure in DI water, 28 °C; 0.0001 = no colonies at 0.001 mM;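 also: last dilution that did not fully inhibit growth with colonies still present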
Procedure: as §2, §3, §4

[10] = tested on: Pseudomonas aeruginosa; test: Toxicity screen, serial dilution-spot test; format: cell-based; settings: gram negative; 24 h exposure in DI water, 28 °C; 0.0001 = no colonies at 0.001 mM;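 also: last dilution that did not fully inhibit growth with colonies still present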
Procedure: as §2, §3, §4

[11] = tested on: Saccharomyces cerevisiae, CEN.PK2 strain; test: Toxicity screen, serial dilution-spot test; format: cell-based; settings: yeast; 24 h exposure in DI water, 28 °C; 0.0001 = no colonies at 0.001 mM;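 also: last dilution that did not fully inhibit growth with colonies still present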
Procedure: as §2, §3, §4

[12] = tested on: six prokaryotic (bacteria) and one eukaryotic (yeast) microorganism species; test: Toxicity screen, whole panel of microorganisms; format: cell-based; settings: concentrations tested 10 to 0.001 mM
Procedure: as §2, §3, §4

[13] = Determination of critical aggregation concentration (CAC) by DLS; format: physicochemical; settings: aqueous media
Procedure: The critical aggregation concentrations (CAC) of 4-(N-alkylpyridinium)-1,4-DHP derivatives were determined in aqueous media using a Zetasizer Nano S90 (Malvern Panalytical Ltd., Malvern, UK) instrument with Malvern Instruments Ltd. Software according to procedure described by Topel et al. and modified by our group. Briefly, as stock solutions of tested compounds were used, samples were prepared for self-assembling experiments. All of the subsequent samples were prepared starting from the concentrated stock solution, which was subjected to a serial two-fold dilution each time with water. The intensity values of scattered light (kcps) as a function of concentration of amphiphiles were analysed. The scattering intensities detected for amphiphile concentrations below CAC have an approximately constant value corresponding to water. The intensity starts to show a linear increase with concentration at the CAC, since the amount of nanoparticles increases in the solution. The intersection of the best-fit lines drawn through the data points is the preliminary CAC value of the compounds.

[14] = tested on: HT-1080 (human connective tissue fibrosarcoma) cells; test: MTT cytotoxicity assay on HT-1080 tumor cells, 72 h; format: cell-based; settings: MTT, 72 h; ne = no effect in the tested concentration (up to 100 μg/mL)
Procedure: as §1

[15] = tested on: MH-22A (mouse hepatocarcinoma) cells; test: MTT cytotoxicity assay on MH-22A tumor cells, 72 h; format: cell-based; settings: MTT, 72 h; ne = no effect in the tested concentration (up to 100 μg/mL)
Procedure: as §1

Row | SMILES | IC50 at 72 h [1] | IC50 at 72 h [2] | Toxicity category from estimated LD50 [3] | PDI ± SD, 1 Set [4] | Zeta-Pot ± SD [4] | PDI ± SD, 2 Set [4] | Stability of nanoparticles [4] | Boundary concentration, B. subtilis [5] | Boundary concentration, E. coli [6] | Boundary concentration, K. pneumoniae [7] | Boundary concentration, M. luteus [8] | Boundary concentration, P. mirabilis [9] | Boundary concentration, P. aeruginosa [10] | Boundary concentration, S. cerevisiae [11] | Effect on survival of microorganisms [12] | CAC [13] | Cytotoxicity IC50, HT-1080 [14] | Cytotoxicity IC50, MH-22A [15]
1 | CCCCCC[n+]1cccc(C2C(C(=O)OCC)=C(C)NC(C)=C2C(=O)OCC)c1 [Compound 2] | 26 ± 2 µM | 67 ± 4 µM | non-toxic | 0.50 and 0.50 ± 0.10 | −11.39 ± 1.85 mV | 0.91 ± 0.10 | weak stability | – | – | – | – | – | – | – | – | – | – | –
2 | C#CCOC(=O)C1=C(C)NC(C)=C(C(=O)OCC#C)C1c1ccc[n+](CCCCCC)c1 [Compound 8] | 76 ± 8 µM | 80 ± 5 µM | non-toxic | 0.60 and 0.60 ± 0.06 | – | 0.45 ± 0.05 | – | – | – | – | – | – | – | – | – | – | – | –
3 | C#CCN1C(C)=C(C(=O)OCC)C(c2ccc[n+](CCCCCCCCCCCCCCCC)c2)C(C(=O)OCC)=C1C [Compound 11] | – | – | – | 0.37 and 0.37 ± 0.03 | – | 0.33 and 0.33 ± 0.03 | stable after two weeks of storage; also recorded: confirmed the stability of nanoparticles | 0.0001 mM | 0.01 mM | 10 mM | 0.001 mM | 0.0001 mM | 0.01 mM | 0.0001 mM | toxic at various degrees | 7.6 µM | – | –
4 | C#CCN1C(C)=C(C(=O)OCC)C(c2ccc[n+](CCCCCC)c2)C(C(=O)OCC)=C1C [Compound 5] | 5 ± 0.3 µM | 16 ± 1 µM | non-toxic | 0.72 and 0.72 ± 0.32 | −9.96 ± 0.72 mV | 0.59 ± 0.01 | weak stability | – | – | – | – | – | – | – | – | – | – | –
5 | CCOC(=O)C1=C(C)NC(C)=C(C(=O)OCC)C1c1ccc[n+](CC)c1 [Compound 1] | – | – | – | 0.18 and 0.18 ± 0.01 | −8.43 ± 2.14 mV | 0.40 and 0.40 ± 0.16 | lost their homogeneity after two weeks of storage; also recorded: weak stability | – | – | – | – | – | – | – | – | – | did not demonstrate any cytotoxic effect and ne | did not demonstrate any cytotoxic effect and ne
6 | C#CCN1C(C)=C(C(=O)OCC)C(c2ccc[n+](CC)c2)C(C(=O)OCC)=C1C [Compound 4] | – | – | – | 0.16 and 0.16 ± 0.02 | −5.47 ± 1.97 mV | 0.41 and 0.41 ± 0.07 | lost their homogeneity after two weeks of storage; also recorded: weak stability | – | – | – | – | – | – | – | – | – | did not demonstrate any cytotoxic effect and ne | did not demonstrate any cytotoxic effect and ne
